Reference: patent US11931343B2 (ARCUS BIOSCIENCES, INC., priority 2018, dated 2024)
pIC50: −log10 of the molar value.

Target: T1, human CD73 (Homo sapiens, UniProt P21589)
T1 sequence (P21589 27-549): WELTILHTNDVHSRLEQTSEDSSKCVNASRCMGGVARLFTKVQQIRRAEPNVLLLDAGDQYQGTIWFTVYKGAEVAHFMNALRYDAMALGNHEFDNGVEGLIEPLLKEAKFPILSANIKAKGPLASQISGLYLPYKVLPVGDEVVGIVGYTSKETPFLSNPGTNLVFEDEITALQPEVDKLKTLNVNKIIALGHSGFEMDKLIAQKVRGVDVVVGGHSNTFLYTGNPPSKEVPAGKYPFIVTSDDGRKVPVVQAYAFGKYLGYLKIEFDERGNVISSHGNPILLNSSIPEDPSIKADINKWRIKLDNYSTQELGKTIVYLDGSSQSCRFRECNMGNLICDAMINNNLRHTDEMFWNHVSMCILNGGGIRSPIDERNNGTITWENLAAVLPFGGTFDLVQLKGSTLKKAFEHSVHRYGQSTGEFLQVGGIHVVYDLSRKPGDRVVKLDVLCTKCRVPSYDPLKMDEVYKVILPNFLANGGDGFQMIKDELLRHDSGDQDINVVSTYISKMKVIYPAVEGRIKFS
Experiment: Inhibition of Ecto-5′-nucleotidase (CD73) activity in CHO-CD73 cells, phosphate release from AMP
Type: cell-based
Conditions: CHO-K1 cells stably transfected with human CD73; 25 μM AMP; 50 minutes, 37° C.; read-out: Potency: CD73 IC50

Row | SMILES | pIC50
1 | N#Cc1ccc(Cn2nccc2-c2cc3c(c(N)nn3-c3ccc4cn[nH]c4c3)[n+]([O-])c2)cc1 [Example 362] | 6.00 to 7.00
2 | N#Cc1ccc(Cn2nccc2-c2cc3c(c[n+]2[O-])nnn3-c2ccc3cn[nH]c3c2)cc1 [Example 363] | 6.00 to 7.00
3 | N#Cc1ccc(Cn2nccc2-c2cnc3c(N)nn(-c4cc5[nH]ncc5cc4F)c3c2)cc1 [Example 364] | > 7.00
4 | N#Cc1ccc(Cn2nccc2-c2cc3c(c(N)nn3-c3ccc4[nH]c(=O)[nH]c4c3)[n+]([O-])c2)cc1 [Example 365] | < 6.00
5 | [O-][n+]1cc(Cl)ccc1Cn1nccc1-c1cc(Cl)c2nnn(-c3ccc4cn[nH]c4c3)c2c1 [Example 366] | > 7.00
6 | N#Cc1ccc(Cn2nccc2-c2cc(F)c3nnn(-c4ccc5cn[nH]c5n4)c3c2)cc1 [Example 367] | > 7.00
7 | O=c1[nH]c2ccc(-n3nnc4c(Cl)cc(-c5ccnn5Cc5ccc(Cl)c[n+]5[O-])cc43)cc2[nH]1 [Example 369] | 6.00 to 7.00
8 | CCc1nn(-c2ccc3cn[nH]c3c2)c2cc(-c3ccnn3Cc3ccc(C#N)cc3)cnc12 [Example 370] | < 6.00
9 | N#Cc1ccc(Cn2nccc2-c2cnc3c(Cl)nn(-c4ccc5cn[nH]c5c4)c3c2)cc1 [Example 371] | 6.00 to 7.00
10 | N#Cc1ccc(Cn2nccc2-c2cc3c(nnn3-c3ccc4cn[nH]c4c3)[nH]c2=O)cc1 [Example 372] | 6.00 to 7.00
11 | Fc1cc(-c2ccnn2C2CCCOC2)cc2c1nnn2-c1ccc2cn[nH]c2c1 (stereo not drawn) [Example 373] | < 6.00
12 | CC(c1ccc(Cl)cn1)n1nccc1-c1cc(Cl)c2nnn(-c3ccc4cn[nH]c4c3)c2c1 (stereo not drawn) [Example 374] | 6.00 to 7.00
13 | OC(Cn1nccc1-c1cc(F)c2nnn(-c3ccc4cn[nH]c4c3)c2c1)c1ccccc1 (stereo not drawn) [Example 375] | < 6.00
14 | N#Cc1ccc(Cn2nccc2-c2cnc3c(C(F)(F)F)nn(-c4ccc5cn[nH]c5c4)c3c2)cc1 [Example 376] | < 6.00
15 | CC(c1ccc(Cl)cn1)n1nccc1-c1cc(F)c2nnn(-c3ccc4cn[nH]c4c3)c2c1 (stereo not drawn) [Example 377] | 6.00 to 7.00
16 | N#Cc1ccc(Cn2nccc2-c2cc3c(cc2F)nnn3-c2ccc3cn[nH]c3c2)cc1 [Example 378] | > 7.00
17 | CC(c1ccc(Cl)c[n+]1[O-])n1nccc1-c1cc(Cl)c2nnn(-c3ccc4cn[nH]c4c3)c2c1 (stereo not drawn) [Example 379] | 6.00 to 7.00
18 | Cc1ccc(C(C)n2nccc2-c2cc(Cl)c3nnn(-c4ccc5cn[nH]c5c4)c3c2)nc1 (stereo not drawn) [Example 380] | 6.00 to 7.00
19 | Cc1ccc(Cn2nccc2-c2cc(Cl)c3nnn(-c4ccc5cn[nH]c5c4)c3c2)[n+]([O-])c1 [Example 381] | > 7.00
20 | CC(c1ccc(C#N)cc1)n1nccc1-c1cc2c(cc1F)nnn2-c1ccc2cn[nH]c2c1 (stereo not drawn) [Example 382] | 6.00 to 7.00
21 | CC(c1ccc(Cl)cn1)n1nccc1-c1cc2c(cc1F)nnn2-c1ccc2cn[nH]c2c1 (stereo not drawn) [Example 383] | 6.00 to 7.00
22 | Cc1cc2nnn(-c3ccc4cn[nH]c4c3)c2cc1-c1ccnn1Cc1ccc(C#N)cc1 [Example 384] | 6.00 to 7.00
23 | CC(Cn1nccc1-c1cc(F)c2nnn(-c3ccc4cn[nH]c4c3)c2c1)c1ccccc1 (stereo not drawn) [Example 385] | < 6.00
24 | Cc1nn(-c2ccc3cn[nH]c3c2)c2cc(-c3ccnn3Cc3ccc(Cl)cc3)cnc12 [Example 386] | 6.00 to 7.00
25 | CC(c1ccc(Cl)c[n+]1[O-])n1c(-c2cc3c(cc2F)nnn3-c2ccc3cn[nH]c3c2)cc[n+]1[O-] (stereo not drawn) [Example 387] | 6.00 to 7.00
26 | Cc1ccc(F)c(-n2nccc2-c2cc(F)c3nnn(-c4ccc5cn[nH]c5c4)c3c2)c1 [Example 388] | < 6.00
27 | N#Cc1ccc(Cn2nccc2-c2cc(F)c3c(N)nn(-c4ccc5cn[nH]c5c4)c3c2)cc1 [Example 389] | 6.00 to 7.00
28 | Cc1ccc(C(C)n2nccc2-c2cc(Cl)c3nnn(-c4ccc5cn[nH]c5c4)c3c2)[n+]([O-])c1 (stereo not drawn) [Example 390] | 6.00 to 7.00
29 | N#Cc1ccc(Cn2nccc2-c2cc3c(c[n+]2[O-])nnn3-c2ccc3[nH]c(=O)[nH]c3c2)cc1 [Example 391] | < 6.00
30 | Cc1ccc(Cn2nccc2-c2cc3c(cc2F)nnn3-c2ccc3cn[nH]c3c2)nc1 [Example 392] | > 7.00
